{
  "source": "patent US20060258000A1",
  "about": "“Use of steady-state oxygen gradients to modulate animal cell functions” (priority 2003, published 2006)",
  "key": {"[1]": {"tested_on": "PEPCK", "test": "Zonal induction of PEPCK in hepatocyte bioreactor under oxygen gradient, Western blot", "assay_type": "cell-based, rat", "excerpt": "Hepatocyte Isolation And Culture.\nBioreactor And Flow Circuit."}, "[2]": {"tested_on": "CYP2B", "protocol": "(§1) Primary rat hepatocytes from 6-well plates or chamber slides were lysed and scraped in SDS buffered (10 mM Tris/HCl (ph 7.4), 0.1% SDS). Samples were added to microcentrifuge tubes with 5 μl of PMSF, homogenized with a pestle, and centrifuged at 16,200 g for 5 minutes. Total protein content in the supernatant was determined using the DC protein assay (Bio-Rad, Hercules, Calif.) and used to normalize sample loading. Samples prepared in sample buffer were loaded (10-20 μg/well) for electrophoresis on a 10% polyacrylamide gel. After overnight transfer on to a PVDF membrane, blots were incubated with a blocking buffered (20 mM Tris-Cl (pH 7.4), 500 mM NaCl, 0.1% Tween 20, and 5% (w/v) milk powder) and washed with buffer without milk powder, incubation for 1 h with primary antibody against rat PEPCK or rat CYP2B (Genset, Woburn, Mass.) was followed by washing and incubation with either anti-sheep (PEPCK) or anti-goat (CYP2B) HRP-conjugated secondary antibody for 45 minutes. After washing, the Pierce SuperSignal chemiluminescence reagent was used for detection. All electrophoresis gels were run with molecular mass markers to verify PEPCK bands (67 kDa) or CYP2B1/2 bands (56 kDa). Optical density measurements were obtained using scanned blot images with 1d gelscan software (Metamorph)."}, "[3]": {"tested_on": "CYP2B", "test": "CYP2B protein induction in static and perfused co-cultures, Western blot", "protocol": "as §1"}, "[4]": {"tested_on": "CYP3A", "test": "CYP3A protein induction in static and perfused co-cultures, Western blot"}, "[5]": {"tested_on": "CYP2B", "test": "Zonal induction of CYP2B in hepatocyte bioreactor under oxygen gradient, Western blot", "protocol": "Bioreactor cultures were perfused with media and allowed to reach steady state before the addition of inductive agents of glucagon for PEPCK up-regulation or phenobarbitol (PB) and EGF for CYP2B1 induction. […] Media with 0.75 mM PB and 0.16 nM EGF was perfused for 36 h to induced CYB2B expression before cell lysis. Cell lysates were collected at the end of each experiment for electrophoretic analysis.\nPrimary rat hepatocytes from 6-well plates or chamber slides were lysed and scraped in SDS buffered (10 mM Tris/HCl (ph 7.4), 0.1% SDS). Samples were added to microcentrifuge tubes with 5 μl of PMSF, homogenized with a pestle, and centrifuged at 16,200 g for 5 minutes. Total protein content in the supernatant was determined using the DC protein assay (Bio-Rad, Hercules, Calif.) and used to normalize sample loading. Samples prepared in sample buffer were loaded (10-20 μg/well) for electrophoresis on a 10% polyacrylamide gel."}, "[6]": {"conditions": "cultures perfused with 200 μM PB, 36 hours"}, "[7]": {"conditions": "static cultures induced with PB"}},
  "data": [
    {"molecule": "glucagon", "values": [
      {"measurement": "PEPCK protein levels in 4 bioreactor regions", "setting": "[1]; 10 nM glucagon 8 h, inlet pO2 76 mmHg, 0.5 mL/min (physiologic gradient)", "value": "maximal PEPCK protein levels at the inlet decreasing to half maximal at the outlet"},
      {"measurement": "PEPCK induction distribution", "setting": "[1]; 10 nM glucagon, inlet pO2 158 mmHg, 0.5 ml/min (supraphysiologic gradient)", "value": "heterogenous induction of PEPCK was abrogated"}
    ]},
    {"molecule": "C[C@@H]1C[C@H]2[C@@H]3CCC4=CC(=O)C=C[C@]4(C)[C@@]3(F)[C@@H](O)C[C@]2(C)[C@@]1(O)C(=O)CO", "note": "[DEX, dexamethasone]", "values": [
      {"measurement": "CYP2B induction and localization", "setting": "[2]", "value": "high levels which were localized to inlet regions"}
    ]},
    {"molecule": "CCC1(c2ccccc2)C(=O)NC(=O)NC1=O", "note": "[PB, phenobarbital]", "values": [
      {"measurement": "CYP2B expression over controls", "setting": "[3]; [6]", "value": "Dramatic expression of both CYPs over controls"},
      {"measurement": "CYP2B spatial distribution along bioreactor", "setting": "[3]; [6]", "value": "levels were highest in the lower-oxygen outlet regions"},
      {"measurement": "CYP2B expression", "setting": "[3]; [7]", "value": "moderate CYP2B expression"},
      {"measurement": "CYP3A expression over controls", "setting": "[4]; [6]", "value": "Dramatic expression of both CYPs over controls"},
      {"measurement": "CYP3A spatial distribution along bioreactor", "setting": "[4]; [6]", "value": "increasing expression from inlet to outlet"},
      {"measurement": "CYP3A expression", "setting": "[4]; [7]", "value": "low CYP3A"},
      {"measurement": "CYP2B induction along the chamber", "setting": "[5]; 0.75 mM PB with 0.16 nM EGF, 36 h, inlet pO2 76 mmHg, 0.5 mL/min (physiologic gradient)", "value": "increasing CYP2B induction along the length of the chamber"},
      {"measurement": "CYP2B levels from inlet to outlet", "setting": "[5]; PB with EGF, supraphysiologic oxygen gradient, same flow rate", "value": "did not result in significant differences in CYP2B levels from inlet to outlet"}
    ]}
  ]
}
